# Results as given in patent US20130317064A1 (priority 2011, published 2013).
smiles,measurement,value
"Cc1cc(C(F)(F)F)nn1CC(=O)N1CCC(c2nc(NC(=O)C3=C(O)CCCC3=O)cs2)CC1 [I.a.001, 2-hydroxy-6-oxo-cyclohex-1-enecarboxylic acid (2-{1-[2-(5-methyl-3-trifluoromethyl-pyrazol-1-yl)-acetyl]-piperidin-4-yl}-thiazol-4-yl)-amide]",melting point,102 to 105 °C
